Assays:
AGS [1] = assay: 72-h MTT cytotoxicity assay, AGS; assay type: cell-based; details: Homo sapiens
Outline: (§1)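 Anti-proliferative activity was measured by standard 72-h MTT assay. AGS is gastric adenocarcinoma with wild-type p53; H1299 is p53-null large cell lung carcinoma with low HDM2; SJSA-1 is bone sarcoma with wild-type p53 and overexpressed HDM2.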

H1299 [2] = assay: 72-h MTT cytotoxicity assay, H1299; assay type: cell-based; details: Homo sapiens
Outline: as §1

DU145 = assay: 72-h MTT cytotoxicity assay, DU145; assay type: cell-based; details: Homo sapiens, DU-145, 72 h; DU145, Prostate carcinoma; read-out: Anti-proliferative activity, 72-h MTT IC50
Experimental: (§2) Representative bisarylsulfonamide compounds were tested on a panel of transformed and non-transformed human cell lines, using a standard 72-h MTT cytotoxicity assay [Haselsberger K et al, ibid].

Lovo = assay: 72-h MTT cytotoxicity assay, Lovo; assay type: cell-based; details: Homo sapiens, Colon adenocarcinoma, read-out: Anti-proliferative activity, 72-h MTT IC50
Experimental: as §2

Messa = assay: 72-h MTT cytotoxicity assay, Messa; assay type: cell-based; details: Homo sapiens, MES-SA, Uterus sarcoma, read-out: Anti-proliferative activity, 72-h MTT IC50
Experimental: as §2

U2OS = assay: 72-h MTT cytotoxicity assay, U2OS; assay type: cell-based; details: Homo sapiens, Osteosracoma, read-out: Anti-proliferative activity, 72-h MTT IC50
Experimental: as §2

sarcoma cell lines = assay: 72-h MTT panel, average sarcomas; assay type: cell-based; details: Homo sapiens, average over sarcoma cell lines, read-out: Anti-proliferative activity, 72-h MTT IC50, Average sarcomas
Experimental: as §2
(§3) This differential selectivity further supports the notion that the bisarylsulfonamides modulate cellular HDM2 function. It is known that HDM2 amplification is particularly common in soft tissue sarcomas and osteosarcomas [Momand J et al, ibid; Bartel F, Meye A, Wurl P, Kappler M, Bache M, Lautenschlager C, Grunbaum U, Schmidt H, Taubert H; Int. J. Cancer 2001; 95: 168-175].

[3] = system: non-transformed human cell lines; assay: 72-h MTT panel, average non-transformed; assay type: cell-based; details: average over non-transformed cell lines, read-out: Anti-proliferative activity, 72-h MTT IC50, Average non-transformed
Experimental: as §2, §3

AGS [4] = assay: Combination treatment with cisplatin or etoposide, MTT, AGS; assay type: cell-based, human
Excerpt: (§4) It is well established that radiotherapy and most current forms of chemotherapy cause extensive genetic damage and induction of the p53-dependent apoptotic pathway, which determines the important role of this tumor suppressor protein in cancer therapy. HDM2, on the other hand, as a transcriptional product and negative regulator pf p53, would destabilise p53 and diminish its pro-apoptotic function. Inhibitors of the p53-HDM2 negative feedback loop (e.g. compounds disrupting the p53-HDM2 complex) are expected to synergise with cytotoxic agents for induction of p53 and subsequent apoptosis. […] Both chemotherapeutic agents were used in the concentration range of 100-0.19 μM.

H1299 [5] = assay: Combination treatment with cisplatin or etoposide, MTT, H1299; assay type: cell-based, human
Excerpt: as §4

AGS cells = assay: Caspase activity (casp ACE assay), AGS; assay type: cell-based, human; details: five times the IC50, compared with cisplatin treatment
Experimental: In more detail: (A) Cells were treated with […] [IC50] of compound 2 or cisplatinum and collected at the time points indicated. Cell lysates were prepared, the caspase activity was determined using the casp ACE assay and values were plotted on a graph. (B) Cells were treated with 5 times [IC50] of compound 2 or cisplatinum and collected at the time points indicated. AGS cells were also incubated with compound 2 in the presence of a caspase inhibitor Z-VAD.fmk. Cell lysates were prepared, the caspase activity was determined using the casp ACE assay and values were plotted on a graph.
To characterise the apoptosis-inducing properties of bisarylsulfonamides caspase ⅓ activty was measured. AGS or H1299 cells were treated with a low concentration of compound 2 or cisplatin corresponding to twice the IC50 value (FIG. 6A). Morphological changes were detected in 10-20% of cells by 72 hours corresponding to an induction of caspase activity first detected at 48 hours, increasing by 72 hours. We also treated AGS and H1299 cells with higher concentrations corresponding to five times the IC50 (FIG. 6B). In this experiment we included a […], Z-VAD.fmk to determine the caspase responsible.

[6] = 72-h MTT, Table 1, read-out: IC50 Anti-proliferative effect on cell line AGS
[7] = 72 h, Gastric adenocarcinoma, Table 2, read-out: Anti-proliferative activity, 72-h MTT IC50
[8] = NCI-H1299, 72 h, H1299, Large cell lung carcinoma, Table 2, read-out: Anti-proliferative activity, 72-h MTT IC50
[9] = NCI-H1299, 72-h MTT, Table 1, read-out: IC50 Anti-proliferative effect on cell line H 1299
[10] = 2 added 6 hours before etoposide
[11] = 2 added prior to the treatment with cisplatin

Row | IC50 (sarcoma cell lines) | IC50 of etoposide, fold lower in cells pre-treated with 2 (AGS [4]; [10]) | IC50 (AGS [4]; Homo sapiens, MTT, 72 hours, Table 5, read-out: IC50, agent alone) | IC50 of etoposide, fold lower in cells pre-treated with 2 (H1299 [5]; [10]) | IC50 (H1299 [5]; Homo sapiens, NCI-H1299, MTT, 72 hours, Table 5, read-out: IC50, agent alone) | SMILES | IC50 (AGS [1]; [6]) | IC50 (AGS [1]; [7]) | IC50 (AGS [1]; Example 9, read-out: anti-proliferative IC50 concentration determined for each cell line) | IC50 (H1299 [2]; [8]) | IC50 (H1299 [2]; [9]) | IC50 (H1299 [2]; NCI-H1299, H1299, Example 9, read-out: anti-proliferative IC50 concentration determined for each cell line) | IC50 (DU145) | IC50 (Lovo) | IC50 (Messa) | IC50 (U2OS) | IC50 [3] | potency increase of cisplatin (AGS [4]; [11]) | potency increase of cisplatin (H1299 [5]; [11]) | caspase activity (AGS cells)
1 | 10.2 ± 2.7 µM | 3.5 fold | 1.1 µM | 25 fold | 5.1 µM | O=[N+]([O-])c1cc(S(=O)(=O)Nc2ccc(Cl)cc2)sc1Cl [Compound 2, 5-Chloro-4-nitrothiophene-2-sulfonic acid (4-chlorophenyl)-amide] | 1.1 ± 0.2 µM | 1.2 µM | 1 µM | 4.4 µM | 5.1 ± 0.7 µM | 5 µM | 3.1 µM | 2.1 µM | 13.1 µM | 6.2 µM | 21 ± 3.1 µM | 18.5 fold | 16 fold | only weak caspase activity was induced by 24 hours
2 | 12.1 ± 3.8 µM | – | – | – | – | O=[N+]([O-])c1cc(S(=O)(=O)Nc2ccc(F)cc2)sc1Cl [Compound 3, 5-Chloro-4-nitrothiophene-2-sulfonic acid (4-fluorophenyl)amide] | 1.5 ± 0.3 µM | 1.7 µM | – | 5.2 µM | 5.7 ± 0.4 µM | – | 3.6 µM | 2.3 µM | 18.3 µM | 8.2 µM | 18.7 ± 3.1 µM | – | – | –
3 | 13.7 ± 3.1 µM | – | – | – | – | O=[N+]([O-])c1cc(S(=O)(=O)Nc2ccc(C(F)(F)F)cc2)sc1Cl [Compound 6, 5-Chloro-4-nitrothiophene-2-sulfonic acid (4-trifluoromethylphenyl)amide] | 2 ± 0.3 µM | 2.2 µM | – | 4.9 µM | 8.1 ± 1.3 µM | – | 6.1 µM | 3.9 µM | 16 µM | 10.2 µM | 27.1 ± 4.9 µM | – | – | –
